Laboratory results from PubChem BioAssay AID488867 (Broad Institute, 2010).
Calls of active or inactive are those of the source.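 How the source made its calls: active means a rising curve with AC50 no higher than ten times the top valid dose of that compound; inconclusive means flat curve between 30 and 70 percent, or failed fit; inactive means the rest.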

Assay: INS-1E mitochondrial potential loss inhibitors – cell-based, JC-1 fluorescence, dry powder, set 2, dose response (AID 488867)
Details: INS-1E cytokine-induced apoptosis, JC-1 mitochondrial potential, 48 h; at 23.5 µM (top of the series)
For `Cc1ccc(S(=O)(=O)N(C)C[C@@H]2Oc3c(NC(=O)Nc4cccc5ccccc45)cccc3C(=O)N([C@H](C)CO)C[C@H]2C)cc1`, the protection from cytokine-induced depolarization was 7.94% (inactive). For `COc1ccc(S(=O)(=O)N(C)C[C@@H]2Oc3c(NC(=O)C4CC4)cccc3C(=O)N([C@@H](C)CO)C[C@H]2C)cc1`, the protection from cytokine-induced depolarization was -7.4% (inactive). With `COc1ccc(S(=O)(=O)N(C)C[C@@H]2Oc3c(NS(=O)(=O)c4ccc(C)cc4)cccc3C(=O)N([C@@H](C)CO)C[C@H]2C)cc1` the protection from cytokine-induced depolarization was -2.55% (inactive). With `C[C@@H]1CN([C@@H](C)CO)C(=O)c2cccc(NC(=O)Nc3cccc4ccccc34)c2O[C@H]1CN(C)C(=O)Nc1ccc(C(F)(F)F)cc1` the protection from cytokine-induced depolarization was 7.29% (inactive). With `COc1ccc(S(=O)(=O)N(C)C[C@@H]2Oc3c(NC(=O)C4CCOCC4)cccc3C(=O)N([C@@H](C)CO)C[C@H]2C)cc1` the protection from cytokine-induced depolarization was 3.35% (inactive). For `COc1ccc(S(=O)(=O)N(C)C[C@@H]2Oc3c(cccc3N(C)C)C(=O)N([C@@H](C)CO)C[C@H]2C)cc1`, the protection from cytokine-induced depolarization was -4.35% (inactive).

Same assay, conditions: INS-1E cytokine-induced apoptosis, JC-1 mitochondrial potential, 48 h; at 26 µM (top of the series)
For `C[C@@H]1CN([C@@H](C)CO)C(=O)c2cccc(NC(=O)Nc3cccc4ccccc34)c2O[C@H]1CN(C)S(=O)(=O)c1ccccc1`, the protection from cytokine-induced depolarization was 8.02% (inactive). With `COc1ccc(S(=O)(=O)N(C)C[C@@H]2Oc3c(NS(=O)(=O)c4ccc(F)cc4)cccc3C(=O)N([C@@H](C)CO)C[C@H]2C)cc1` the protection from cytokine-induced depolarization was -3.26% (inactive). For `C[C@@H]1CN([C@@H](C)CO)C(=O)c2cccc(NC(=O)Nc3ccc(F)cc3)c2O[C@H]1CN(C)S(=O)(=O)c1ccc(F)cc1`, the protection from cytokine-induced depolarization was 11.7% (inactive). For `COc1ccc(S(=O)(=O)N(C)C[C@@H]2Oc3c(NS(=O)(=O)c4cn(C)cn4)cccc3C(=O)N([C@@H](C)CO)C[C@H]2C)cc1`, the protection from cytokine-induced depolarization was -9.04% (inactive). For `COc1ccc(S(=O)(=O)N(C)C[C@@H]2Oc3c(NC(=O)Nc4ccc5c(c4)OCO5)cccc3C(=O)N([C@@H](C)CO)C[C@H]2C)cc1`, the protection from cytokine-induced depolarization was 4.22% (inactive). In the case of `COc1ccc(S(=O)(=O)N(C)C[C@@H]2Oc3c(NC(=O)Nc4cccc5ccccc45)cccc3C(=O)N([C@@H](C)CO)C[C@H]2C)c(OC)c1`, the protection from cytokine-induced depolarization is reported as 11.3% (inactive). With `COc1cccc(S(=O)(=O)N(C)C[C@@H]2Oc3c(NC(=O)Nc4cccc5ccccc45)cccc3C(=O)N([C@@H](C)CO)C[C@H]2C)c1` the protection from cytokine-induced depolarization was 5.29% (inactive). In the case of `C[C@@H]1CN([C@@H](C)CO)C(=O)c2cccc(NC(=O)Nc3cccc4ccccc34)c2O[C@H]1CN(C)S(=O)(=O)c1ccc2c(c1)oc(=O)n2C`, the protection from cytokine-induced depolarization is reported as -5.34% (inactive). With `C[C@@H]1CN([C@@H](C)CO)C(=O)c2cccc(NC(=O)Nc3ccccc3)c2O[C@H]1CN(C)S(=O)(=O)c1ccc(F)cc1` the protection from cytokine-induced depolarization was 7.91% (inactive). For `C[C@@H]1CN([C@@H](C)CO)C(=O)c2cccc(NC(=O)Nc3cccc4ccccc34)c2O[C@H]1CN(C)S(=O)(=O)c1ccccc1F`, the protection from cytokine-induced depolarization was -16.5% (inactive). For `COc1ccc(S(=O)(=O)N(C)C[C@@H]2Oc3c(NC(=O)C4CCCCC4)cccc3C(=O)N([C@@H](C)CO)C[C@H]2C)cc1`, the protection from cytokine-induced depolarization was 2.77% (inactive). In the case of `Cc1noc(C)c1NC(=O)N(C)C[C@@H]1Oc2c(NC(=O)Nc3cccc4ccccc34)cccc2C(=O)N([C@@H](C)CO)C[C@H]1C`, the protection from cytokine-induced depolarization is reported as 12.1% (inactive). With `C[C@@H]1CN([C@@H](C)CO)C(=O)c2cccc(NC(=O)Nc3cccc4ccccc34)c2O[C@H]1CN(C)S(=O)(=O)c1cccs1` the protection from cytokine-induced depolarization was 3.88% (inactive). With `C[C@@H]1CN([C@@H](C)CO)C(=O)c2cccc(NC(=O)Nc3cccc4ccccc34)c2O[C@H]1CN(C)C(=O)Nc1ccc(F)cc1` the protection from cytokine-induced depolarization was 9.03% (inactive). For `COc1ccc(S(=O)(=O)N(C)C[C@@H]2Oc3c(NC(=O)c4cc(C)nn4C)cccc3C(=O)N([C@@H](C)CO)C[C@H]2C)cc1`, the protection from cytokine-induced depolarization was 1.8% (inactive). For `COc1ccc(S(=O)(=O)N(C)C[C@@H]2Oc3c(NC(=O)Nc4cccc5ccccc45)cccc3C(=O)N([C@@H](C)CO)C[C@@H]2C)cc1`, the protection from cytokine-induced depolarization was -0.543% (inactive). With `C[C@@H]1CN([C@@H](C)CO)C(=O)c2cccc(NC(=O)Nc3cccc4ccccc34)c2O[C@H]1CN(C)C(=O)NC1CCCCC1` the protection from cytokine-induced depolarization was -6.42% (inactive). For `COc1ccc(S(=O)(=O)N(C)C[C@@H]2Oc3c(NS(=O)(=O)c4ccc(Cl)cc4)cccc3C(=O)N([C@@H](C)CO)C[C@H]2C)cc1`, the protection from cytokine-induced depolarization was -6.3% (inactive). For `COc1ccc(NC(=O)Nc2cccc3c2O[C@@H](CN(C)S(=O)(=O)c2ccc(OC)cc2)[C@H](C)CN([C@@H](C)CO)C3=O)cc1`, the protection from cytokine-induced depolarization was 0.556% (inactive). In the case of `N#Cc1ccc2cc(Br)c(C(F)(F)P(=O)(O)O)cc2c1`, the protection from cytokine-induced depolarization is reported as -2.22% (inactive). In the case of `COc1ccc(S(=O)(=O)N(C)C[C@@H]2Oc3c(NC(=O)c4cccc5ccccc45)cccc3C(=O)N([C@@H](C)CO)C[C@H]2C)cc1`, the protection from cytokine-induced depolarization is reported as 4.73% (inactive). For `C[C@@H]1CN([C@H](C)CO)C(=O)c2cccc(NC(=O)Nc3cccc4ccccc34)c2O[C@H]1CN(C)S(=O)(=O)c1ccc(Cl)cc1`, the protection from cytokine-induced depolarization was 4.01% (inactive). In the case of `COc1ccc(S(=O)(=O)N(C)C[C@@H]2Oc3c(NC(=O)Nc4ccc(C(F)(F)F)cc4)cccc3C(=O)N([C@@H](C)CO)C[C@H]2C)cc1`, the protection from cytokine-induced depolarization is reported as -7.36% (inactive). With `CNC[C@@H]1Oc2c(NC(=O)Nc3cccc4ccccc34)cccc2C(=O)N([C@@H](C)CO)C[C@H]1C` the protection from cytokine-induced depolarization was 9.02% (inactive). For `Cc1ccc(S(=O)(=O)N(C)C[C@@H]2Oc3c(NC(=O)Nc4ccc(F)cc4)cccc3C(=O)N([C@@H](C)CO)C[C@H]2C)cc1`, the protection from cytokine-induced depolarization was 10.4% (inactive). With `COc1ccc(S(=O)(=O)N(C)C[C@@H]2Oc3c(NS(=O)(=O)c4ccccc4)cccc3C(=O)N([C@@H](C)CO)C[C@H]2C)cc1` the protection from cytokine-induced depolarization was -2.15% (inactive). With `C[C@@H]1CN([C@@H](C)CO)C(=O)c2cccc(NC(=O)Nc3ccccc3)c2O[C@H]1CN(C)S(=O)(=O)c1ccc(Cl)cc1` the protection from cytokine-induced depolarization was 17.7% (inactive). With `COc1ccc(S(=O)(=O)N(C)C[C@@H]2Oc3c(NC(=O)Nc4cccc5ccccc45)cccc3C(=O)N([C@@H](C)CO)C[C@H]2C)cc1Cl` the protection from cytokine-induced depolarization was -12% (inactive). With `COc1ccc(S(=O)(=O)N(C)C[C@@H]2Oc3c(NC(=O)c4cnccn4)cccc3C(=O)N([C@@H](C)CO)C[C@H]2C)cc1` the protection from cytokine-induced depolarization was -9.35% (inactive). For `COc1ccc(S(=O)(=O)N(C)C[C@@H]2Oc3c(NC(=O)c4nc5ccccc5s4)cccc3C(=O)N([C@@H](C)CO)C[C@H]2C)cc1`, the protection from cytokine-induced depolarization was -8.58% (inactive). With `C[C@@H]1CN([C@@H](C)CO)C(=O)c2cccc(NC(=O)Nc3cccc4ccccc34)c2O[C@H]1CN(C)S(=O)(=O)c1ccc(OC(F)(F)F)cc1` the protection from cytokine-induced depolarization was -2.77% (inactive). With `C[C@@H]1CN([C@@H](C)CO)C(=O)c2cccc(NC(=O)Nc3cccc(Cl)c3Cl)c2O[C@H]1CN(C)S(=O)(=O)c1ccc2c(c1)OCCO2` the protection from cytokine-induced depolarization was 8.05% (inactive). For `C[C@@H]1CN([C@@H](C)CO)C(=O)c2cccc(NC(=O)Nc3ccc(F)cc3)c2O[C@H]1CN(C)S(=O)(=O)c1ccc(Cl)cc1`, the protection from cytokine-induced depolarization was 8.02% (inactive).
